Test results taken from patent publication US20150310826A1, “DISPLAY DEVICE AND PHOTOTHERAPY METHOD USING THE SAME” (Samsung Display Co., Ltd., priority 2014, published 2015).

Tests used:
B16F10 melanocyte = experiment: Suppression of generation of melanin to the B16F10 melanocyte; type: cell-based, mouse; details: 72 hours; red light 20 μW/cm^2; absorbance at 405 nm
Experimental: The B16F10 melanocyte is a cell strain derived from a mouse, and is a cell secreting a black pigment that is called melanin. The B16F10 melanocyte used in the present Experimental Example was distributed from ATCC (American Type Culture Collection™), and used.
The B16F10 melanocyte was divided in the 2×10^6 concentration for each well on the 6-well plate, attached, and cultivated by irradiating red light in the culture medium of Experimental Example 1 for 72 hours. After cultivation for 72 hours, the cells were separated by trypsin-EDTA (ethylenediaminetetraacetic acid), the number of cells was measured, and centrifugation was performed to collect the cells. Quantification of melanin in the cell was performed by modifying the Lotan's method. […] Melanin extracted by adding 1N NaOH (10% dimethyl sulfoxide (DMSO)) to the filtrate of the cell obtained by centrifugation was dissolved, absorbance of melanin was measured by the microplate reader at 405 nm, and melanin was quantified to measure the melanin generation hindrance ratio (%) of the sample. […]
The melanin generation hindrance ratio (%) of the B16F10 melanocyte was calculated by the following Equation 4, and the result is described in the following Table 4. […]

[1] = system: proinflammatory cytokine (1L-1α); experiment: Suppression of proinflammatory cytokine expression by irradiation of ultraviolet rays (ELISA); type: cell-based, human; details: after 10 mJ/cm^2 ultraviolet ray B; red light for 72 hours at 5 or 47.5 μW/cm^2
Experimental: 5×10^4 keratinocytes separated from the human epidermal tissue were put at a time on the 24-well test plate, and attached for 24 hours. Each well was washed by the PBS once, and 500 μl of the PBS was put on each well. After 10 mJ/cm^2 of ultraviolet rays were irradiated on the keratinocytes by using the ultraviolet ray B lamp, the PBS was taken out, and 350 μl of the cell cultivation medium (DMEM to which the […] was not added) was added. In addition, red light was irradiated in the culture medium of Experimental Example 1 for 72 hours to perform cultivation. 150 μl of cultivation supernatant was sampled to quantify proinflammatory cytokine (1L-1α) and thus judge the expression suppression effect of proinflammatory cytokine. The amount of proinflammatory cytokine was quantified by using the enzyme-linked immunosorbent assay, and ketoprofen known as the proinflammatory cytokine suppression material was used as the positive control group. The expression suppression ratio (%) of proinflammatory cytokine was calculated by the following Equation 7, and the result is described in the following Table 6.
Expression suppression ratio of […]

MMP-1 = experiment: Suppression of generation of collagenase MMP-1 in fibroblast; type: cell-based, human; details: fibroblast supernatant; three days; red light 47.5 μW/cm^2; TGF-β 10 ng/ml
Experimental: (§1) The fibroblast (Korean Cell Line Bank, Korean) that was the human normal skin cell was inoculated on the 48-well microplate (Nunc™, Denmark) so that the number of cells was 1×10^6 for each well, cultivated in the DMEM medium (Sigma™, USA) under the condition of 37° C. for 24 hours, and cultivated by irradiating red light for three days in the culture medium of Experimental Example 1. In order to perform the comparative experiment, red light having the similar wavelength was irradiated for three days to perform cultivation, and TGF-β (10 ng/ml) known to have the effect of suppressing generation of collagenase MMP-1,2 was used as the positive control group. Cultivation was further performed for 48 hours in the culture medium having no light irradiation function to use the resulting fibroblast as the control group.
(§2) After cultivation, the supernatant liquid of each well was collected to measure the amount (ng/ml) of newly synthesized MMP-1,2 by using the MMP-1,2 analysis kit (Amersham™, USA), the MMP generation suppression ratio (%) was calculated according to the following Equation 2, and the result is described in the following Table 2.
(§3) MMP generation rate(%)=(Amount of MMP of the experimental group/Amount of MMP of the control group)×100 (Equation 2)

[2] = system: procollagen type IC-peptide (PICP); experiment: Improvement of synthesis of collagen (PICP) in fibroblast; type: cell-based, human; details: red light 47.5 μW/cm^2 for 24 hours or 72 hours; TGF-β 10 ng/ml
Experimental: The fibroblast that was the human normal […] cell was inoculated on the 48-well microplate so that the number of cells was 1×10^6 for each well, cultivated in the DMEM medium for 24 hours, and cultivated by irradiating red light in a predetermined quantity for one day and three days in the culture medium of Experimental Example 1. In order to perform the comparative experiment, TGF-β (10 ng/ml) known to have the collagen synthesis improvement effect was used as the positive control group, and cultivation was further performed for 48 hours in the culture medium having no red light irradiation function to use the resulting fibroblast as the control group.
After cultivation, the supernatant liquid of each well was collected to measure the amount of procollagen type IC-peptide (PICP) by using the collagen kit (Takara™, Japan) and thus measure the amount of synthesized collagen. The collagen biosynthesis increase ratio (%) was calculated according to the following Equation 3, and the result is described in the following Table 3.
Collagen biosynthesis increase ratio(%)=(Amount of collagen of the experimental group/[…])×100 (Equation 3)

HaCaT keratinocyte = experiment: Cell regeneration, MTT assay on HaCaT keratinocyte; type: cell-based; details: three days cultivation, red light 47.5 μW/cm^2, TGF-β 10 ng/ml
Experimental: On the 24-well plate, the HaCaT keratinocyte (German Cancer Research Institute, Germany) was inoculated into the DMEM (Dulbecco™ Modified Eagle′ Medium) to which the 10% FBS (fetal bovine serum) was added in the density of 2×10^5 cells/well, and cultivated for one day in the humidified culture medium of 37° C. and 5% CO2. After exchanging with the serum-free DMEM, red light was irradiated for three days in the culture medium in which the aforementioned display device was installed to perform cultivation. In order to perform the comparative experiment, red light having the similar wavelength was irradiated for three days to perform cultivation, and TGF-β (transforming growth factor beta) (10 ng/ml), which is the material known to have a cell regeneration effect, was used as the positive control group. Further, cultivation was performed for three days in the culture medium having no light irradiation function to use the resulting keratinocyte as the control group. The degrees of generation of the cell were compared and evaluated by using the MTT (Microculture Tetrazolium) assay method, and the experimental result is described in the following Table 1.
In general, regeneration of the skin cell is measured by the activation rate of the cell, and the activation rate of the cell is proportional to the absorbance (at 570 nm) in Table 1. […]

MMP-2 = experiment: Suppression of generation of collagenase MMP-2 in fibroblast; type: cell-based, human; details: fibroblast supernatant; three days; red light 47.5 μW/cm^2; TGF-β 10 ng/ml
Experimental: as §1, §2, §3

Question: Which “Melanin generation hindrance ratio (%)” value (B16F10 melanocyte) does the source give for `Oc1ccc(O)cc1` [Comparative Example 10, hydroquinone] here?
Answer: 73.1%

Question: With `OC[C@H]1O[C@@H](Oc2ccc(O)cc2)[C@H](O)[C@@H](O)[C@@H]1O` [Comparative Example 11, arbutin] as the compound, how does the “Melanin generation hindrance ratio (%)” value (B16F10 melanocyte) read?
Answer: 52.3%

Question: How did the “Expression suppression ratio of proinflammatory cytokine (%)” value [1] turn out when `CC(C(=O)O)c1cccc(C(=O)c2ccccc2)c1` (stereo not shown) [compound 12, ketoprofen] was run?
Answer: 41.1%

Question: Which results are given for “TGF-β (transforming growth factor beta) [compound 3]”?
Answer: MMP-1 generation suppression ratio (%) (MMP-1): 75.1%; Collagen biosynthesis increase ratio (%) [2]: 24.7%; Absorbance (at 570 nm) (HaCaT keratinocyte): 1.423; MMP-2 generation suppression ratio (%) (MMP-2): 76.2%
